Reference: patent US20250228239A1, “MOLECULES HAVING PESTICIDAL UTILITY, AND INTERMEDIATES, COMPOSITIONS, AND PROCESSES, RELATED THERETO” (priority 2024, published 2025)
Like-named read-outs stand apart in the source and are kept apart here.

Assays:
Assay type in all cases: in vivo
[1] = test system: Yellow Fever Mosquito (Aedes aegypti, AEDSAE); conditions: for YFM rating: Table ABC / ABC-DP rating
Summary of the method: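 Larvae ~1 day old, in liver powder/water; compound from 4000 ppm DMSO stock diluted with water/acetone (90:10); 6 reps; lidded, RT, 3 d; mortality scored per well, rated.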

[2] = test system: Beet Armyworm (Spodoptera exigua, LAPHEG); assay: Bioassays on Beet Armyworm (BAW), 128-well diet tray assay; conditions: for pest or weed control at 50 µg/cm2: Spodoptera exigua
Summary of the method: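 Diet-overlay assay: 50 μg/cm^2 compound applied in 90:10 acetone-water to artificial diet, allowed to dry, then infested with 1–5 L2 larvae/well; 8 wells/compound; covered, vented; 25° C., 14:10 L:D, 5–7 d; % mortality per well, averaged.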

[3] = test system: Cabbage Looper (Trichoplusia ni, TRIPNI); assay: Bioassays on Cabbage Looper (CL), 128-well diet tray assay; conditions: for pest or weed control at 50 µg/cm2: Trichoplusia ni
Summary of the method: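 One to five second-instar larvae per well on artificial diet surface-treated with 50 μg/cm^2 test molecule (applied in 90:10 acetone-water, dried). Held 5–7 days at 25° C, 14:10 light-dark; percent mortality recorded per well and averaged over eight wells.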

[4] = test system: Green Peach Aphid (Myzus persicae, MYZUPE); assay: Bioassays on Green Peach Aphid (GPA), foliar spray on cabbage seedlings; conditions: 72 h
Summary of the method: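 Percent control (Abbott-corrected versus solvent-sprayed plants) comes from live-aphid counts three days after treatment at about 25° C. Test solution at 200 ppm was sprayed to runoff onto both leaf surfaces of cabbage seedlings infested a day earlier with 20-50 aphids; four replicate pots.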

[5] = Table ABC: Biological Results, species YFM
[6] = Table ABC: Biological Results, species BAW, read-out: BAW
[7] = Table ABC: Biological Results, species CL, read-out: CL
[8] = Table ABC: Biological Results, species GPA, read-out: GPA
[9] = Green Peach Aphid, Table ABC / ABC-DP rating, read-out: GPA rating
[10] = Yellow Fever Mosquito, rating class
[11] = Beet Armyworm, rating class, read-out: BAW
[12] = Cabbage Looper, rating class, read-out: CL
[13] = Green Peach Aphid, rating class, read-out: GPA

## O=C(Nc1c(F)ccc(NC(=O)C(F)F)c1F)c1cc(NC(=O)[C@H]2[C@H](c3cc(Cl)c(Cl)c(Cl)c3)C2(Cl)Cl)ccc1Cl [F1238, 2-Chloro-5-((1R,3R)-2,2-dichloro-3-(3,4,5-trichlorophenyl)cyclopropane-1-carboxamido)-N-(3-(2,2-difluoroacetamido)-2,6-difluorophenyl)benzamide]
[1]; [5]
  YFM: A (80–100)
[2]; [6]
  pest or weed control at 50 µg/cm2: 50 to 100%
[3]; [7]
  pest or weed control at 50 µg/cm2: 50 to 100%
[4]; [8]
  pest or weed control at 200 µg/mL: 0 to 80%

## O=C(Nc1c(F)ccc(NC(=O)C(F)F)c1F)c1cc(NC(=O)[C@H]2[C@H](c3cc(Cl)cc(Cl)c3)C2(Cl)Cl)ccc1Cl [F1241, 2-Chloro-5-((1R,3R)-2,2-dichloro-3-(3,5-dichlorophenyl)cyclopropane-1-carboxamido)-N-(3-(2,2-difluoroacetamido)-2,6-difluorophenyl)benzamide]
[1]; [5]
  YFM: A (80–100)
[2]; [6]
  pest or weed control at 50 µg/cm2: 50 to 100%
[3]; [7]
  pest or weed control at 50 µg/cm2: 50 to 100%
[4]; [8]
  pest or weed control at 200 µg/mL: 80 to 100%

## O=C(NCCNC(=O)C(F)(F)F)c1cc(NC(=O)[C@H]2[C@H](c3cc(Cl)cc(Cl)c3)C2(Cl)Cl)ccc1Cl (relative stereo) [F2082, trans-2-Chloro-5-(2,2-dichloro-3-(3,5-dichlorophenyl)cyclopropane-1-carboxamido)-N-(2-(2,2,2-trifluoroacetamido)ethyl)benzamide]
[1]; Yellow Fever Mosquito
  YFM rating: B (More than 0 – Less than 80)
[2]; Beet Armyworm, Table ABC / ABC-DP rating
  BAW rating: A (50–100)
[3]; Cabbage Looper, Table ABC / ABC-DP rating
  CL rating: A (50–100)
[4]; [9]
  pest or weed control at 200 µg/mL: 80 to 100%

## CCN(C(=O)c1cc(NC(=O)[C@H]2[C@H](c3cc(Cl)cc(Cl)c3)C2(Cl)Cl)ccc1Cl)c1ccc(F)cc1C#N (relative stereo) [F1091, trans-2-Chloro-N-(2-cyano-4-fluorophenyl)-5-(2,2-dichloro-3-(3,5-dichlorophenyl)cyclopropane-1-carboxamido)-N-ethylbenzamide]
[1]; [5]
  YFM: A (80–100)
[2]; [6]
  pest or weed control at 50 µg/cm2: 50 to 100%
[3]; [7]
  pest or weed control at 50 µg/cm2: 50 to 100%
[4]; [8]
  pest or weed control at 200 µg/mL: 0 to 80%

## Cc1c(NC(=O)c2cc(NC(=O)[C@H]3[C@H](c4cc(Cl)cc(Cl)c4)C3(Cl)Cl)ccc2Cl)ccc([N+](=O)[O-])c1C (relative stereo) [F1180, trans-2-chloro-5-(2,2-dichloro-3-(3,5-dichlorophenyl)cyclopropane-1-carboxamido)-N-(2,3-dimethyl-4-nitrophenyl)benzamide]
[1]; [5]
  YFM: A (80–100)
[2]; [6]
  pest or weed control at 50 µg/cm2: 50 to 100%
[3]; [7]
  pest or weed control at 50 µg/cm2: 50 to 100%
[4]; [8]
  pest or weed control at 200 µg/mL: 0 to 80%

## CN(C(=O)CC#N)c1c(F)ccc(NC(=O)c2cc(NC(=O)[C@H]3[C@H](c4ccc(Cl)c(Cl)c4)C3(Cl)Cl)ccc2Cl)c1F [F1617, 2-Chloro-N-(3-(2-cyano-N-methylacetamido)-2,4-difluorophenyl)-5-((1R,3R)-2,2-dichloro-3-(3,4-dichlorophenyl)cyclopropane-1-carboxamido)benzamide]
[1]; [10]
  YFM: A (80–100)
[2]; [11]
  pest or weed control at 50 µg/cm2: 50 to 100%
[3]; [12]
  pest or weed control at 50 µg/cm2: 50 to 100%
[4]; [13]
  pest or weed control at 200 µg/mL: 0 to 80%

## CC(=O)Nc1c(F)cc(F)c(NC(=O)c2cc(NC(=O)[C@H]3[C@H](c4ccc(F)c(C(F)(F)F)c4)C3(Cl)Cl)ccc2Cl)c1F [F1613, N-(3-Acetamido-2,4,6-trifluorophenyl)-2-chloro-5-((1R,3R)-2,2-dichloro-3-(4-fluoro-3-(trifluoromethyl)phenyl)cyclopropane-1-carboxamido)benzamide]
[1]; [10]
  YFM: A (80–100)
[2]; [11]
  pest or weed control at 50 µg/cm2: 50 to 100%
[3]; [12]
  pest or weed control at 50 µg/cm2: 50 to 100%
[4]; [13]
  pest or weed control at 200 µg/mL: 80 to 100%

## CC(=O)Nc1cccc(F)c1NC(=O)c1cc(NC(=O)[C@H]2[C@H](c3cc(Cl)cc(Cl)c3)C2(Cl)Cl)ccc1Cl (relative stereo) [F1636, trans-N-(2-Acetamido-6-fluorophenyl)-2-chloro-5-(2,2-dichloro-3-(3,5-dichlorophenyl)cyclopropane-1-carboxamido)benzamide]
[1]; [10]
  YFM: A (80–100)
[2]; [11]
  pest or weed control at 50 µg/cm2: 50 to 100%
[3]; [12]
  pest or weed control at 50 µg/cm2: 50 to 100%
[4]; [13]
  pest or weed control at 200 µg/mL: 0 to 80%

## CCC(C)C(=O)Nc1c(F)ccc(NC(=O)c2cc(NC(=O)[C@H]3[C@H](c4ccc(F)c(C(F)(F)F)c4)C3(Cl)Cl)ccc2Cl)c1F (stereo partly drawn) [F1642, 2-Chloro-5-((1R,3R)-2,2-dichloro-3-(4-fluoro-3-(trifluoromethyl)phenyl)cyclopropane-1-carboxamido)-N-(2,4-difluoro-3-(2-methylbutanamido)phenyl)benzamide]
[1]; [10]
  YFM: A (80–100)
[2]; [11]
  pest or weed control at 50 µg/cm2: 50 to 100%
[3]; [12]
  pest or weed control at 50 µg/cm2: 50 to 100%
[4]; [13]
  pest or weed control at 200 µg/mL: 0 to 80%

## O=C(Nc1cc(NC(=O)C(F)F)c(F)cc1F)c1cc(NC(=O)[C@H]2[C@H](c3ccc(Cl)c(Cl)c3)C2(Cl)Cl)ccc1Cl [F1242, 2-Chloro-5-((1R,3R)-2,2-dichloro-3-(3,4-dichlorophenyl)cyclopropane-1-carboxamido)-N-(5-(2,2-difluoroacetamido)-2,4-difluorophenyl)benzamide]
[1]; [5]
  YFM: A (80–100)
[2]; [6]
  pest or weed control at 50 µg/cm2: 50 to 100%
[3]; [7]
  pest or weed control at 50 µg/cm2: 50 to 100%
[4]; [8]
  pest or weed control at 200 µg/mL: 0 to 80%

## O=C(Nc1ccc(F)c(NC(=O)C(F)(F)Cl)c1F)c1cc(NC(=O)[C@H]2[C@H](c3ccc(F)c(Cl)c3)C2(Cl)Cl)ccc1Cl [F1697, 2-Chloro-N-(3-(2-chloro-2,2-difluoroacetamido)-2,4-difluorophenyl)-5-((1R,3R)-2,2-dichloro-3-(3-chloro-4-fluorophenyl)cyclopropane-1-carboxamido)benzamide]
[1]; [10]
  YFM: A (80–100)
[2]; [11]
  pest or weed control at 50 µg/cm2: 50 to 100%
[3]; [12]
  pest or weed control at 50 µg/cm2: 50 to 100%
[4]; [13]
  pest or weed control at 200 µg/mL: 80 to 100%

## Nc1c(F)ccc(NC(=O)c2cc(NC(=O)[C@H]3[C@H](c4ccc(Cl)cc4)C3(Cl)Cl)ccc2Cl)c1F (relative stereo) [F1593, trans-N-(3-Amino-2,4-difluorophenyl)-2-chloro-5-(2,2-dichloro-3-(4-chlorophenyl)cyclopropane-1-carboxamido)benzamide]
[1]; [10]
  YFM: A (80–100)
[2]; [11]
  pest or weed control at 50 µg/cm2: 50 to 100%
[3]; [12]
  pest or weed control at 50 µg/cm2: 50 to 100%
[4]; [13]
  pest or weed control at 200 µg/mL: 80 to 100%

## O=C(Nc1ccc(F)c(NC(=O)C2CCCC2)c1F)c1cc(NC(=O)[C@H]2[C@H](c3ccc(F)c(C(F)(F)F)c3)C2(Cl)Cl)ccc1Cl [F1643, 2-Chloro-N-(3-(cyclopentanecarboxamido)-2,4-difluorophenyl)-5-((1R,3R)-2,2-dichloro-3-(4-fluoro-3-(trifluoromethyl)phenyl)cyclopropane-1-carboxamido)benzamide]
[1]; [10]
  YFM: B (More than 0 – Less than 80)
[2]; [11]
  pest or weed control at 50 µg/cm2: 50 to 100%
[3]; [12]
  pest or weed control at 50 µg/cm2: 50 to 100%
[4]; [13]
  pest or weed control at 200 µg/mL: 0 to 80%

## O=C1CC(C(=O)Nc2c(F)ccc(NC(=O)c3cc(NC(=O)[C@H]4[C@H](c5ccc(Cl)c(Cl)c5)C4(Cl)Cl)ccc3Cl)c2F)C1 [F1475, 2-Chloro-5-((1R,3R)-2,2-dichloro-3-(3,4-dichlorophenyl)cyclopropane-1-carboxamido)-N-(2,4-difluoro-3-(3-oxocyclobutane-1-carboxamido)phenyl)benzamide]
[1]; [10]
  YFM: A (80–100)
[2]; [11]
  pest or weed control at 50 µg/cm2: 50 to 100%
[3]; [12]
  pest or weed control at 50 µg/cm2: 50 to 100%
[4]; [13]
  pest or weed control at 200 µg/mL: 0 to 80%

## CC(=O)Nc1ccc(F)c(NC(=O)c2cc(NC(=O)[C@H]3[C@H](c4cc(Cl)cc(Cl)c4)C3(Cl)Cl)ccc2Cl)c1 (relative stereo) [F1635, trans-N-(5-Acetamido-2-fluorophenyl)-2-chloro-5-(2,2-dichloro-3-(3,5-dichlorophenyl)cyclopropane-1-carboxamido)benzamide]
[1]; [10]
  YFM: A (80–100)
[2]; [11]
  pest or weed control at 50 µg/cm2: 50 to 100%
[3]; [12]
  pest or weed control at 50 µg/cm2: 50 to 100%
[4]; [13]
  pest or weed control at 200 µg/mL: 0 to 80%

## CCC(=O)Nc1c(F)ccc(NC(=O)c2cc(NC(=O)[C@H]3[C@H](c4ccc(F)c(Cl)c4)C3(Cl)Cl)ccc2Cl)c1F [F1704, 2-Chloro-5-((1R,3R)-2,2-dichloro-3-(3-chloro-4-fluorophenyl)cyclopropane-1-carboxamido)-N-(2,4-difluoro-3-propionamidophenyl)benzamide]
[1]; [10]
  YFM: A (80–100)
[2]; [11]
  pest or weed control at 50 µg/cm2: 50 to 100%
[3]; [12]
  pest or weed control at 50 µg/cm2: 50 to 100%
[4]; [13]
  pest or weed control at 200 µg/mL: 80 to 100%

## O=C(NCC(F)(F)F)c1c(F)ccc(NC(=O)[C@H]2[C@H](c3ccc(F)c(Cl)c3)C2(Cl)Cl)c1F (relative stereo) [F2017, trans-3-(2,2-Dichloro-3-(3-chloro-4-fluorophenyl)cyclopropane-1-carboxamido)-2,6-difluoro-N-(2,2,2-trifluoroethyl)benzamide]
[1]; Yellow Fever Mosquito
  YFM rating: A (80–100)
[2]; Beet Armyworm, Table ABC / ABC-DP rating, read-out: BAW rating
  pest or weed control at 50 µg/cm2: 50 to 100%
[3]; Cabbage Looper, Table ABC / ABC-DP rating, read-out: CL rating
  pest or weed control at 50 µg/cm2: 50 to 100%
[4]; [9]
  pest or weed control at 200 µg/mL: 80 to 100%
